Measurements from US9284304B2, “Substituted pyrimidines as toll-like receptor modulators” (JANSSEN SCIENCES IRELAND UC, priority 2012, dated 2016).

Assays:
human TLR8 (hTLR8) = biological target: T1, human TLR8 (hTLR8) (Homo sapiens, UniProt Q9NR97); test: TLR8 cellular NFκB-luc reporter assay in transiently transfected HEK293 cells; format: cell-based; design: unit not given here; conditions: lowest effective concentration, wild type TLR8, 48 hours incubation
T1 construct: expressed in transfected cells; host or cells: HEK293
T1 sequence (Q9NR97 27-1041): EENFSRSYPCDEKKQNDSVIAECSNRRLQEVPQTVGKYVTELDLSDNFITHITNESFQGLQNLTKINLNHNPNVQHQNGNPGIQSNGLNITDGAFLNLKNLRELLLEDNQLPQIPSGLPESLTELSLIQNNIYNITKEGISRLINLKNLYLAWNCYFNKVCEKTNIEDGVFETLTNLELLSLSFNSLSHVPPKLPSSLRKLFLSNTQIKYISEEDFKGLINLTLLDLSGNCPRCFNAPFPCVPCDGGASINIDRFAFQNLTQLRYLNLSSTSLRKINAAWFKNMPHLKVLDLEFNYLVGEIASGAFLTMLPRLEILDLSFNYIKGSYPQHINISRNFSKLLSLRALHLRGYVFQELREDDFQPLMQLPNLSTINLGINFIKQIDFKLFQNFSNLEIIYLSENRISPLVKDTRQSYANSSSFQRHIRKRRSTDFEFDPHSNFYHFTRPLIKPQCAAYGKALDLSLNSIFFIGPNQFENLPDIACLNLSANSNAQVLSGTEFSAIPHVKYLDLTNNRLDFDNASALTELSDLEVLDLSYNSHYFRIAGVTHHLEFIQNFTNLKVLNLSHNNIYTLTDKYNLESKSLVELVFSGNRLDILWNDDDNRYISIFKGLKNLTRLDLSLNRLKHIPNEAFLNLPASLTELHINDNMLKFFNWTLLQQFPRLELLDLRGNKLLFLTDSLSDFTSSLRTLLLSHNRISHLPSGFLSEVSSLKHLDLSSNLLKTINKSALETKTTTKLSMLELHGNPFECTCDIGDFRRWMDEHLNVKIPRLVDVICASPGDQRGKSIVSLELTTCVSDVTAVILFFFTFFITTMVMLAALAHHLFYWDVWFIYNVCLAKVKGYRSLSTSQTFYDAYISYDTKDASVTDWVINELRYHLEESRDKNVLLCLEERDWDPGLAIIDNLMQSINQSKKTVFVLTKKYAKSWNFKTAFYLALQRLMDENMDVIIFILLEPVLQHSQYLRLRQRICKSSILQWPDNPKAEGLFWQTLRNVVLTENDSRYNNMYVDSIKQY
Experimental: (§1) The ability of compounds to activate human TLR7 (hTLR7) and/or TLR8 (hTLR8) was assessed in a cellular reporter assay using HEK293 cells transiently transfected with a TLR7 or TLR8 expression vector and NFκB-luc reporter construct. In one instance the TLR expression construct expresses the respective wild type sequence or a mutant sequence comprising a deletion in the second leucine-rich repeat of the TLR. […] Briefly, HEK293 cells were grown in culture medium (DMEM supplemented with 10% FCS and 2 mM Glutamine). For transfection of cells in 10 cm dishes, cells were detached with Trypsin-EDTA, transfected with a mix of CMV-TLR7 or TLR8 plasmid (750 ng), NFκB-luc plasmid (375 ng) and a transfection reagent and incubated overnight at 37° C. in a humidified 5% CO2 atmosphere. Transfected cells were then detached with Trypsin-EDTA, washed in PBS and resuspended in medium to a density of 1.67×10^5 cells/mL. Thirty microliters of cells were then dispensed into each well in 384-well plates, where 10 μL of compound in 4% DMSO was already present. Following 48 hours incubation at 37° C., 5% CO2, the luciferase activity was determined by adding 15 μl of Steady Lite Plus substrate (Perkin Elmer) to each well and readout performed on a ViewLux ultraHTS microplate imager (Perkin Elmer). Dose response curves were generated from measurements performed in quadruplicates. Lowest effective concentrations (LEC) values, defined as the concentration that induces an effect which is at least two fold above the standard deviation of the assay, were determined for each compound.

human TLR7 (hTLR7) = biological target: T2, human TLR7 (hTLR7) (Homo sapiens, UniProt Q9NYK1); test: TLR7 cellular NFκB-luc reporter assay in transiently transfected HEK293 cells; format: cell-based; design: unit not given here; conditions: lowest effective concentration, wild type TLR7, 48 hours incubation
T2 construct: expressed in transfected cells; host or cells: HEK293
T2 sequence (Q9NYK1 27-1049): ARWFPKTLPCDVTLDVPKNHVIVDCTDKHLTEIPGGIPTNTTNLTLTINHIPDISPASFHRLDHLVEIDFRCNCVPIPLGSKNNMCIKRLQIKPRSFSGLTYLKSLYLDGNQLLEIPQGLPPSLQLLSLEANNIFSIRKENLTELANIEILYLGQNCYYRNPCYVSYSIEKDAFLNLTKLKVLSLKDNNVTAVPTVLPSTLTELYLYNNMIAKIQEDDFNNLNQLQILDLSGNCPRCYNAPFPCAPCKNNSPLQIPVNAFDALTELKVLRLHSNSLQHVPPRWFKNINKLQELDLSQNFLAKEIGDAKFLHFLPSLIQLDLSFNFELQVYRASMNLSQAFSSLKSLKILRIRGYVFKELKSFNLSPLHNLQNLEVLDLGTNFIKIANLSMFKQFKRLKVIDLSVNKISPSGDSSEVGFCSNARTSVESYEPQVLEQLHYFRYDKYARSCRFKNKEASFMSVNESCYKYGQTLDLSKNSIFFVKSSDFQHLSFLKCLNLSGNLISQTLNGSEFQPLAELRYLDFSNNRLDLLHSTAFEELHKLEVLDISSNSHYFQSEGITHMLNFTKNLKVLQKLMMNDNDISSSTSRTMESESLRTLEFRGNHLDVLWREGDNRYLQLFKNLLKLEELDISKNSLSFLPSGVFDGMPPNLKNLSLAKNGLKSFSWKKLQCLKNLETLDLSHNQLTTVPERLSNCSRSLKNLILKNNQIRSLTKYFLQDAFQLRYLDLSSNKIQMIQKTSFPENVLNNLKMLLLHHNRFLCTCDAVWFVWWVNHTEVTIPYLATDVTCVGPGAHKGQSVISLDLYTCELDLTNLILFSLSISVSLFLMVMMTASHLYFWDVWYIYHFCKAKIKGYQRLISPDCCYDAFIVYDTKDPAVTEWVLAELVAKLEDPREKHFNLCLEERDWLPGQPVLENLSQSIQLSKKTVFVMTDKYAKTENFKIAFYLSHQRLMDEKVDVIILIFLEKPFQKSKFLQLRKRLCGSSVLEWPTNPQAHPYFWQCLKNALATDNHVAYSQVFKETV
Experimental: as §1

SMILES | hTLR8 wt (LEC) (human TLR8 (hTLR8)) | hTLR7 wt (LEC) (human TLR7 (hTLR7))
CCCCNc1nc(N)ncc1CC.Cl [Example 1] | 1.3 | 2.4
CCCCNc1nc(N)ncc1CCc1ccccc1.Cl [Example 2] | 6.5 | 6.7
CCCCNc1nc(N)ncc1CCc1ccc(OC)cc1OC.Cl [Example 3] | 12 | 2.4
CCCCNc1nc(N)ncc1CCc1ccccc1OC.Cl [Example 4] | 13 | 5
CCCCNc1nc(N)ncc1CCc1ccc2ccccc2n1.Cl [Example 7] | 1.2 | 0.5

Other lines, results leading:

hTLR8 wt (LEC) (human TLR8 (hTLR8)) | hTLR7 wt (LEC) (human TLR7 (hTLR7)) | SMILES
1.4 | 1.2 | CCCCNc1nc(N)ncc1CCc1cccnc1.Cl [Example 5]
1.6 | 0.6 | CCCCNc1nc(N)ncc1CCc1ccccn1.Cl [Example 6]
3.6 | 8.1 | CCCCNc1nc(N)ncc1CCc1cccs1.Cl [Example 8]
